Source: patent EP0049683A2, “Imidazo-rifamycines, process for their preparation, pharmaceutical preparations containing them and their use” (CIBA-GEIGY AG, priority 1980, dated 1982)
In brackets after ≈: the same amount, converted by molar mass.

Assays:
Experiment in all cases: Agar dilution MIC in DST agar (Ericsson and Sherris)
Format in all cases: cell-based
Escherichia coli 2018 = settings: for MIC Esch. 2018: in vitro; for MIC: Escherichia coli, 2018, in vitro, read-out: MIC Esch. 2018
Text: (§1) Die antibiotische Aktivität der Testverbindungen in vitro wurde durch die Agarverdünnungsmethode nach Ericsson, H.M., und Sherris, S.C., 1971, Acta Path. Microb. Scand. Section B, Suppl. No. 217, Bd. 1-90, in DST Agara ermittelt. Die gefundenen, das Wachstum der Testorganismen noch hemmenden Minimalkonzentrationen (MIC = minimum inhibiting concentrations) werden in Mikrogramm pro Milliliter (µg/ml) für die geprüften Verbindungen in der Tabelle 1 angegeben.

[1] = tested on: Salmonella Typhimurium 277; settings: in vitro; for MIC: Salmonella enterica, TYPHIMURIUM, read-out: MIC Salm. 277
Text: as §1

Proteus morganii 2359 = settings: for MIC Prot. 2359: in vitro; for MIC: Morganella morganii, 2359, in vitro, read-out: MIC Prot. 2359
Text: as §1

Proteus morganii 1518 = settings: for MIC Prot. 1518: in vitro; for MIC: Morganella morganii, 1518, in vitro, read-out: MIC Prot. 1518
Text: as §1

[2] = tested on: Pseudomonas aeruginosa K 799/61; settings: for MIC Pseu. 799: in vitro, agar dilution, DST agar; for MIC: Pseudomonas aeruginosa, K799/61, read-out: MIC Pseu. 799
Text: as §1

Escherichia coli 205 = settings: for MIC Esch. 205: in vitro; for MIC: Escherichia coli, 205, in vitro, read-out: MIC Esch. 205
Text: as §1

[3] = tested on: Staphylococcus aureus 10B; settings: in vitro; for MIC: Staphylococcus aureus, 10B, read-out: MIC Staph. 10B
Text: as §1

## 4-(2,6-Dimethyl-morpholino)-imidazolo[4,5-c]rifamycin SV [Verbindung 29]
Escherichia coli 2018
  MIC Esch. 2018: 32 µg/mL
[1]
  MIC Salm. 277: 128 µg/mL
Proteus morganii 2359
  MIC Prot. 2359: 8 µg/mL
Proteus morganii 1518
  MIC Prot. 1518: 8 µg/mL
[2]
  MIC Pseu. 799: 8 µg/mL
Escherichia coli 205
  MIC Esch. 205: 32 µg/mL

## 4-(4-Heptylpiperazinyl)-imidazolo[4,5-c]rifamycin SV [Verbindung 36]
Escherichia coli 2018
  MIC Esch. 2018: 8 µg/mL
[1]
  MIC Salm. 277: 32 µg/mL
Proteus morganii 2359
  MIC Prot. 2359: 8 µg/mL
Proteus morganii 1518
  MIC Prot. 1518: 8 µg/mL
[2]
  MIC Pseu. 799: 8 µg/mL
Escherichia coli 205
  MIC Esch. 205: 2 µg/mL

## 4-(4-Hexylpiperazinyl)-imidazolo[4,5-c]rifamycin SV [Verbindung 35]
Escherichia coli 2018
  MIC Esch. 2018: 8 µg/mL
[1]
  MIC Salm. 277: 32 µg/mL
Proteus morganii 2359
  MIC Prot. 2359: 8 µg/mL
Proteus morganii 1518
  MIC Prot. 1518: 8 µg/mL
[2]
  MIC Pseu. 799: 8 µg/mL
Escherichia coli 205
  MIC Esch. 205: 8 µg/mL

## 4-(4-Isobutyl-2-methyl-piperazinyl)-imidazolo[4,5-c]rifamycin SV [Verbindung 75]
Escherichia coli 2018
  MIC Esch. 2018: 8 µg/mL
[1]
  MIC Salm. 277: 32 µg/mL
Proteus morganii 2359
  MIC Prot. 2359: 8 µg/mL
Proteus morganii 1518
  MIC Prot. 1518: 2 µg/mL
[2]
  MIC Pseu. 799: 32 µg/mL
[3]
  MIC Staph. 10B: 0.01 µg/mL
Escherichia coli 205
  MIC Esch. 205: 8 µg/mL

## 4-(4-Isopropyloxycarbonylpiperazinyl)-imidazolo[4,5-c]-rifamycin SV [Verbindung 68]
Escherichia coli 2018
  MIC Esch. 2018: 32 µg/mL
[1]
  MIC Salm. 277: 32 µg/mL
Proteus morganii 2359
  MIC Prot. 2359: 32 µg/mL
Proteus morganii 1518
  MIC Prot. 1518: 8 µg/mL
[2]
  MIC Pseu. 799: 8 µg/mL
[3]
  MIC Staph. 10B: 0.01 µg/mL
Escherichia coli 205
  MIC Esch. 205: 32 µg/mL

## 4-(4-Pentylpiperazinyl)-imidazolo[4,5-c]rifamycin SV [Verbindung 34]
Escherichia coli 2018
  MIC Esch. 2018: 2 µg/mL
[1]
  MIC Salm. 277: 32 µg/mL
Proteus morganii 2359
  MIC Prot. 2359: 8 µg/mL
Proteus morganii 1518
  MIC Prot. 1518: 8 µg/mL
[2]
  MIC Pseu. 799: 32 µg/mL
Escherichia coli 205
  MIC Esch. 205: 8 µg/mL

## 4-(N-Butyl-N-methylamino)-imidazolo[4,5-c]rifamycin SV [Verbindung 9]
Escherichia coli 2018
  MIC Esch. 2018: 8 µg/mL
[1]
  MIC Salm. 277: 32 µg/mL
Proteus morganii 2359
  MIC Prot. 2359: 8 µg/mL
Proteus morganii 1518
  MIC Prot. 1518: 1 µg/mL
[2]
  MIC Pseu. 799: 8 µg/mL
Escherichia coli 205
  MIC Esch. 205: 8 µg/mL

## 4-Thiomorpholino-imidazolo[4,5-c]rifamycin SV [Verbindung 30]
Escherichia coli 2018
  MIC Esch. 2018: 8 µg/mL
[1]
  MIC Salm. 277: 32 µg/mL
Proteus morganii 2359
  MIC Prot. 2359: 8 µg/mL
Proteus morganii 1518
  MIC Prot. 1518: 8 µg/mL
[2]
  MIC Pseu. 799: 32 µg/mL
Escherichia coli 205
  MIC Esch. 205: 8 µg/mL

## 4-[4-(1-Ethylpropyl)-piperazinyl]-imidazolo[4,5-c]rifamycin SV [Verbindung 41]
Escherichia coli 2018
  MIC Esch. 2018: 2 µg/mL
Proteus morganii 2359
  MIC Prot. 2359: 8 µg/mL
Proteus morganii 1518
  MIC Prot. 1518: 8 µg/mL
[2]
  MIC Pseu. 799: 32 µg/mL
[3]
  MIC Staph. 10B: 0.005 µg/mL
Escherichia coli 205
  MIC Esch. 205: 8 µg/mL

## CCN(CC)c1nc2c3c(O)c4c(O)c(C)c5c(c4c2[nH]1)C(=O)C(C)(OC=CC(OC)C(C)C(OC(C)=O)C(C)C(O)C(C)C(O)C(C)C=CC=C(C)C(=O)N3)O5 (centres unmarked) [Verbindung 6, 4-Diethylamino-imidazolo[4,5-c]rifamycin SV]
Escherichia coli 2018
  MIC: 128 µg/mL (≈ 161 µM)
[1]
  MIC: 128 µg/mL (≈ 161 µM)
Proteus morganii 2359
  MIC: 128 µg/mL (≈ 161 µM)
Proteus morganii 1518
  MIC: 128 µg/mL (≈ 161 µM)
[2]
  MIC: 128 µg/mL (≈ 161 µM)
Escherichia coli 205
  MIC: 128 µg/mL (≈ 161 µM)

## CO[C@H]1/C=C/O[C@@]2(C)Oc3c(C)c(O)c4c(O)c(c5[nH]c(N6CCc7ccccc76)nc5c4c3C2=O)NC(=O)/C(C)=C\C=C\[C@H](C)[C@H](O)[C@@H](C)[C@@H](O)[C@@H](C)[C@H](OC(C)=O)[C@@H]1C [Verbindung 20, 4-Indolinyl-imidazolo[4,5-c]rifamycin SV]
Escherichia coli 2018
  MIC: 8 µg/mL (≈ 9.54 µM)
[1]
  MIC: 32 µg/mL (≈ 38.1 µM)
Proteus morganii 2359
  MIC: 8 µg/mL (≈ 9.54 µM)
Proteus morganii 1518
  MIC: 4 µg/mL (≈ 4.77 µM)
[2]
  MIC: 16 µg/mL (≈ 19.1 µM)
Escherichia coli 205
  MIC: 8 µg/mL (≈ 9.54 µM)

## CCCC(C)CN1CCN(c2nc3c([nH]2)c2c(O)c4c(O)c(C)c5c(c43)C(=O)[C@@](C)(O/C=C/[C@H](OC)[C@@H](C)[C@@H](OC(C)=O)[C@H](C)[C@H](O)[C@H](C)[C@@H](O)[C@@H](C)/C=C/C=C(/C)C(=O)N2)O5)CC1 (some centres unmarked) [Verbindung 39, 4-[4-(2-Methylpentyl)-piperazinyl]-imidazolo[4,5-c]-rifamycin SV]
Escherichia coli 2018
  MIC: 8 µg/mL (≈ 8.99 µM)
[1]
  MIC: 32 µg/mL (≈ 36 µM)
Proteus morganii 2359
  MIC: 8 µg/mL (≈ 8.99 µM)
Proteus morganii 1518
  MIC: 8 µg/mL (≈ 8.99 µM)
[2]
  MIC: 32 µg/mL (≈ 36 µM)
Escherichia coli 205
  MIC: 8 µg/mL (≈ 8.99 µM)

## CCC(C)CCN1CCN(c2nc3c([nH]2)c2c(O)c4c(O)c(C)c5c(c43)C(=O)[C@@](C)(O/C=C/[C@H](OC)[C@@H](C)[C@@H](OC(C)=O)[C@H](C)[C@H](O)[C@H](C)[C@@H](O)[C@@H](C)/C=C/C=C(/C)C(=O)N2)O5)CC1 (some centres unmarked) [Verbindung 42, 4-[4-(3-Methylpentyl)-piperazinyl]-imidazolo[4,5-c]-rifamycin SV]
Escherichia coli 2018
  MIC: 8 µg/mL (≈ 8.99 µM)
[1]
  MIC: 32 µg/mL (≈ 36 µM)
Proteus morganii 2359
  MIC: 8 µg/mL (≈ 8.99 µM)
Proteus morganii 1518
  MIC: 8 µg/mL (≈ 8.99 µM)
[2]
  MIC: 32 µg/mL (≈ 36 µM)
[3]
  MIC: 0.005 µg/mL (≈ 0.00562 µM)
Escherichia coli 205
  MIC: 8 µg/mL (≈ 8.99 µM)

## C=CCN1CCN(c2nc3c([nH]2)c2c(O)c4c(O)c(C)c5c(c43)C(=O)[C@@](C)(O/C=C/[C@H](OC)[C@@H](C)[C@@H](OC(C)=O)[C@H](C)[C@H](O)[C@H](C)[C@@H](O)[C@@H](C)/C=C/C=C(/C)C(=O)N2)O5)CC1 [Verbindung 44, 4-(4-Allylpiperazinyl)-imidazolo[4,5-c]rifamycin SV]
Escherichia coli 2018
  MIC: 8 µg/mL (≈ 9.46 µM)
[1]
  MIC: 32 µg/mL (≈ 37.8 µM)
Proteus morganii 2359
  MIC: 8 µg/mL (≈ 9.46 µM)
Proteus morganii 1518
  MIC: 8 µg/mL (≈ 9.46 µM)
[2]
  MIC: 32 µg/mL (≈ 37.8 µM)
Escherichia coli 205
  MIC: 8 µg/mL (≈ 9.46 µM)

## C=C(C)CN1CCN(c2nc3c([nH]2)c2c(O)c4c(O)c(C)c5c(c43)C(=O)[C@@](C)(O/C=C/[C@H](OC)[C@@H](C)[C@@H](OC(C)=O)[C@H](C)[C@H](O)[C@H](C)[C@@H](O)[C@@H](C)/C=C/C=C(/C)C(=O)N2)O5)CC1 [Verbindung 46, 4-[4-(2-Methyl-2-propenyl)-piperazinyl]-imidazolo[4,5-c]-rifamycin SV]
Escherichia coli 2018
  MIC: 8 µg/mL (≈ 9.3 µM)
[1]
  MIC: 32 µg/mL (≈ 37.2 µM)
Proteus morganii 2359
  MIC: 8 µg/mL (≈ 9.3 µM)
Proteus morganii 1518
  MIC: 8 µg/mL (≈ 9.3 µM)
[2]
  MIC: 32 µg/mL (≈ 37.2 µM)
Escherichia coli 205
  MIC: 32 µg/mL (≈ 37.2 µM)

## CO[C@H]1/C=C/O[C@@]2(C)Oc3c(C)c(O)c4c(O)c(c5nc(N6CCN(C7CCCCC7)CC6)[nH]c5c4c3C2=O)NC(=O)/C(C)=C\C=C\[C@H](C)[C@H](O)[C@@H](C)[C@@H](O)[C@@H](C)[C@H](OC(C)=O)[C@@H]1C [Verbindung 51, 4-(4-Cyclohexylpiperazinyl)-imidazolo[4,5-c]rifamycin SV]
Escherichia coli 2018
  MIC: 32 µg/mL (≈ 36 µM)
[1]
  MIC: 32 µg/mL (≈ 36 µM)
Proteus morganii 2359
  MIC: 8 µg/mL (≈ 9.01 µM)
Proteus morganii 1518
  MIC: 8 µg/mL (≈ 9.01 µM)
[2]
  MIC: 8 µg/mL (≈ 9.01 µM)
[3]
  MIC: 0.01 µg/mL (≈ 0.0113 µM)
Escherichia coli 205
  MIC: 8 µg/mL (≈ 9.01 µM)

## CO[C@H]1/C=C/O[C@@]2(C)Oc3c(C)c(O)c4c(O)c(c5nc(N6CCN(c7ccccc7)CC6)[nH]c5c4c3C2=O)NC(=O)/C(C)=C\C=C\[C@H](C)[C@H](O)[C@@H](C)[C@@H](O)[C@@H](C)[C@H](OC(C)=O)[C@@H]1C [Verbindung 52, 4-(4-Phenylpiperazinyl)-imidazolo[4,5-c]rifamycin SV]
Escherichia coli 2018
  MIC: 8 µg/mL (≈ 9.07 µM)
[1]
  MIC: 32 µg/mL (≈ 36.3 µM)
Proteus morganii 2359
  MIC: 8 µg/mL (≈ 9.07 µM)
Proteus morganii 1518
  MIC: 8 µg/mL (≈ 9.07 µM)
[2]
  MIC: 32 µg/mL (≈ 36.3 µM)
Escherichia coli 205
  MIC: 32 µg/mL (≈ 36.3 µM)

## CO[C@H]1/C=C/O[C@@]2(C)Oc3c(C)c(O)c4c(O)c(c5nc(N6CCN(CC7CCCCCC7)CC6)[nH]c5c4c3C2=O)NC(=O)/C(C)=C\C=C\[C@H](C)[C@H](O)[C@@H](C)[C@@H](O)[C@@H](C)[C@H](OC(C)=O)[C@@H]1C [Verbindung 56]
Escherichia coli 2018
  MIC: 8 µg/mL (≈ 8.73 µM)
[1]
  MIC: 32 µg/mL (≈ 34.9 µM)
Proteus morganii 2359
  MIC: 8 µg/mL (≈ 8.73 µM)
Proteus morganii 1518
  MIC: 8 µg/mL (≈ 8.73 µM)
[2]
  MIC: 32 µg/mL (≈ 34.9 µM)
[3]
  MIC: 0.005 µg/mL (≈ 0.00546 µM)
Escherichia coli 205
  MIC: 8 µg/mL (≈ 8.73 µM)
